# In patent US5120859A, “Chimeric amino acid analogues” (dated 1992):
# Starred links: 1 amine or outer side, 2 acyl side, 3 side chain; linkers in the order of their positions; H or OH if unused. Non-standard residues stand in square brackets, D forms with d. Residues, ends and D or L forms follow the SMILES beside them. Pro(trans-4-guanidino) = N=C(N)N[C@H]1CN[C@H](C(=O)O)C1; Pro(cis-4-guanidino) = NC(N)=N[C@@H]1CN[C@H](C(=O)O)C1; X4 = N=C(N)NC[C@@H]1C[C@@H](C(=O)[*:2])N([*:1])C1; X1 = N=C(N)NC[C@@H]1C[C@H](C(=O)[*:2])N([*:1])C1; X2 = N=C(N)NC[C@H]1C[C@@H](C(=O)[*:2])N([*:1])C1; X5 = N=C(N)NC[C@H]1C[C@H](C(=O)[*:2])N([*:1])C1; X3 = N=C(N)N[C@H]1C[C@H](C(=O)[*:2])N([*:1])C1
# Target: IIbIIIa receptor (Homo sapiens, UniProt P05106+P08514)
# Assay: biochemical
# Details: read-out: IC50 (Ratio to GRGDV IC50)
# Description: Microtier plates are coated with fibrinogen (10 ug/ml) and then blocked with TACTS buffer containing 0.5% BSA. (TACTS buffer contains 20 mM Tris.HCl, pH 7.5, 0.02% sodium azide, 2 mM calcium chloride, 0.05% Tween 20, 150 mM sodium chloride.) The plate is washed with phosphate buffered saline containing 0.01% Tween 20 and a dilution of the sample to be determined added, followed by addition of solubilized IIbIIIa receptor (40 ug/ml) in TACTS, 0.5% BSA. After incubation, the plate is washed and murine monoclonal anti-platelet antibody AP3 (1 ug/ml) added. After another wash, […] IgG conjugated to horseradish peroxidase are added. A final wash is performed and developing reagent buffer (10 mg o-phenylenediamine dihydrochloride, 0.0212% hydrogen peroxide, 0.22 mM citrate, 50 mM phosphate, pH 5.0) is added and then incubated until color developed. The reaction is stopped with 1N sulfuric acid and the absorbance at 492 nm is recorded. […] The ratio represents the ratio of the IC50 of the test compound to the IC50 of the internal standard (GRGDV).
# Chain of IIbIIIa receptor (P08514 32-1039): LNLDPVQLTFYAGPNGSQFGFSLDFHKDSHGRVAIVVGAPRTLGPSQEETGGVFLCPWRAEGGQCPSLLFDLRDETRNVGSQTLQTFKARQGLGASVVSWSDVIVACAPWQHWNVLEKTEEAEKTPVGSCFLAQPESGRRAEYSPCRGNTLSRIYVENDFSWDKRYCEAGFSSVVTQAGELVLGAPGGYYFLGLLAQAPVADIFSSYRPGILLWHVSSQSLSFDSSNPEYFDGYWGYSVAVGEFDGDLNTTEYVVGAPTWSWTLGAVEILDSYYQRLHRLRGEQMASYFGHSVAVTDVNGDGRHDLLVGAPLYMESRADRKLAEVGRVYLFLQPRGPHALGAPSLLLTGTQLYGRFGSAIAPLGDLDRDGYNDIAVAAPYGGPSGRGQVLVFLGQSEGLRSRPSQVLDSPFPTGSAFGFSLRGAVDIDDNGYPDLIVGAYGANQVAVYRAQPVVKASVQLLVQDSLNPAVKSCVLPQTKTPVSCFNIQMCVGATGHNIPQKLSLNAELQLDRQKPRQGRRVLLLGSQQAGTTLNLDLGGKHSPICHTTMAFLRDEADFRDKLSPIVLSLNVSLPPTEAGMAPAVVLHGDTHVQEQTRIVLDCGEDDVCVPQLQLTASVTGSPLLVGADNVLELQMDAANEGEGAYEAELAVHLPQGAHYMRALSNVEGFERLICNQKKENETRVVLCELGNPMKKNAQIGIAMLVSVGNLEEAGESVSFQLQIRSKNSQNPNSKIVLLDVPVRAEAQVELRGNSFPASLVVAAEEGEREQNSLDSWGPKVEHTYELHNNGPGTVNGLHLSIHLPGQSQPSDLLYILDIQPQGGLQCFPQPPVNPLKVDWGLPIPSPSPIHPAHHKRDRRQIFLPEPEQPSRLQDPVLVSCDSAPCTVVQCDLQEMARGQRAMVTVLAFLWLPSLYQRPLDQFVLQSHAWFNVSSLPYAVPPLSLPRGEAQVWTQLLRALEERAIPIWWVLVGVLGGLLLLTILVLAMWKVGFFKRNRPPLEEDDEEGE
# Chain of IIbIIIa receptor (P05106 27-788): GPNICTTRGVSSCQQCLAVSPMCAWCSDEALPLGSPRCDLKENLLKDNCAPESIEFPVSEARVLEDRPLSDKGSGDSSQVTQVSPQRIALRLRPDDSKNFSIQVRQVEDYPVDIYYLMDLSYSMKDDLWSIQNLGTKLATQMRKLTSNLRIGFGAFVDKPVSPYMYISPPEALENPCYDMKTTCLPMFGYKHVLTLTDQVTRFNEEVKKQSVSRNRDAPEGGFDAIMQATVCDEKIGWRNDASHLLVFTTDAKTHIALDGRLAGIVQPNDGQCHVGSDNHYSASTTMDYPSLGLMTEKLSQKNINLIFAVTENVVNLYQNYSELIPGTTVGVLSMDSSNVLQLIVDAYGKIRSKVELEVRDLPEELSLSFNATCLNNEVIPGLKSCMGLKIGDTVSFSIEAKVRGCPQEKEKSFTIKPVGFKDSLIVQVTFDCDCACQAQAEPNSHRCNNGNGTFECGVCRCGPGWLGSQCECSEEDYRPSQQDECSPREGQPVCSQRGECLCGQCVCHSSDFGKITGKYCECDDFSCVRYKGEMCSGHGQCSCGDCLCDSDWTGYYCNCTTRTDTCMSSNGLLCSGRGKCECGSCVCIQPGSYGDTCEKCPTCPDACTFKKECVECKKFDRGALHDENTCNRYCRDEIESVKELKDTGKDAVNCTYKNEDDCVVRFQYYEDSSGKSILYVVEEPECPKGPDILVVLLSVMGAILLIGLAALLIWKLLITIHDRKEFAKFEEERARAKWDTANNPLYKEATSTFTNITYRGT
row,SMILES,IC50
1,CC(C)[C@H](NC(=O)[C@H](CC(=O)O)NC(=O)CNC(=O)[C@H]1C[C@H](CNC(=N)N)CN1)C(=O)O [##STR51##],6.4 nM
2,CC(C)[C@H](NC(=O)[C@H](CC(=O)O)NC(=O)CNC(=O)[C@@H]1C[C@H](CNC(=N)N)CN1)C(=O)O [##STR52##],10 nM
3,CC(C)[C@H](NC(=O)[C@H](CC(=O)O)NC(=O)CNC(=O)[C@@H]1C[C@@H](CNC(=N)N)CN1C(=O)CN)C(=O)O [##STR53##] (H-G[X4]GDV-OH),30 nM
4,CC(C)[C@H](NC(=O)[C@H](CC(=O)O)NC(=O)CNC(=O)[C@H]1C[C@H](NC(=N)N)CN1C(=O)CN)C(=O)O [##STR54##] (H-G[X3]GDV-OH),226 nM
5,CC(C)[C@H](NC(=O)[C@H](CC(=O)O)NC(=O)CNC(=O)[C@@H]1C[C@H](NC(=N)N)CN1C(=O)CN)C(=O)O [##STR55##] (H-G[Pro(cis-4-guanidino)]GDV-OH),565 nM
6,CC(C)[C@H](NC(=O)[C@H](CC(=O)O)NC(=O)CNC(=O)[C@H]1C[C@H](CNC(=N)N)CN1C(=O)CN)C(=O)O [##STR56##] (H-G[X5]GDV-OH),37 nM
7,CC(C)[C@H](NC(=O)[C@H](CC(=O)O)NC(=O)CNC(=O)[C@H]1C[C@@H](CNC(=N)N)CN1C(=O)CN)C(=O)O [##STR57##] (H-G[X1]GDV-OH),25 nM
8,CC(C)[C@H](NC(=O)[C@H](CC(=O)O)NC(=O)CNC(=O)[C@@H]1C[C@H](CNC(=N)N)CN1C(=O)CN)C(=O)O [##STR58##] (H-G[X2]GDV-OH),101 nM
9,CC(C)[C@H](NC(=O)[C@H](CC(=O)O)NC(=O)CNC(=O)[C@@H]1C[C@H](NC(=N)N)CN1)C(=O)O [##STR59##] (H-[Pro(cis-4-guanidino)]GDV-OH),155 nM
10,CC(C)[C@H](NC(=O)[C@H](CC(=O)O)NC(=O)CNC(=O)[C@@H]1C[C@@H](NC(=N)N)CN1C(=O)CN)C(=O)O [##STR60##] (H-G[Pro(trans-4-guanidino)]GDV-OH),1700 nM
